How the values were obtained:
Format in all cases: in vivo
Settings in all cases: Postemergence
wild oat (Avena fatua) = assay: Test B pre-/postemergence plant response
Description: (§1) Seeds of plant species selected from blackgrass (Alopecurus myosuroides), downy bromegrass (Bromus tectorum), green foxtail (Setaria viridis), Italian ryegrass (Lolium multiflorum), wheat (Triticum aestivum), wild oat (Avena fatua), deadnettle (henbit deadnettle, Lamium amplexicaule), galium (catchweed bedstraw, Galium aparine), bermudagrass (Cynodon dactylon), Surinam grass (Brachiaria decumbens), cocklebur (Xanthium strumarium), corn (Zea mays), large crabgrass (Digitaria sanguinalis), woolly cupgrass (Eriochloa villosa), giant foxtail (Setaria faberii), goosegrass (Eleusine indica), johnsongrass (Sorghum halepense), kochia (Kochia scoparia), lambsquarters (Chenopodium album), morningglory (Ipomoea coccinea), nightshade (eastern black nightshade, Solanum ptycanthum), yellow nutsedge (Cyperus esculentus), pigweed (Amaranthus retroflexus), ragweed (common ragweed, Ambrosia elatior), Russian thistle (Salsola kali), soybean (Glycine max), sunflower (common oilseed sunflower, Helianthus annuus) and velvetleaf (Abutilon theophrasti) were planted into a blend of loam soil and sand and treated preemergence with test compounds formulated in a non-phytotoxic solvent mixture which included a surfactant.
(§2) At the same time, plants selected from these crop and weed species and also winter barley (Hordeum vulgare), canarygrass (Phalaris minor), chickweed (Stellaria media) and windgrass (Apera spica-venti) were planted in pots containing Redi-Earth® planting medium (Scotts Company, 14111 Scottslawn Road, Marysville, Ohio 43041) comprising spaghnum peat moss, vermiculite, wetting agent and starter nutrients and treated with postemergence applications of some of the test chemicals formulated in the same manner. Plants ranged in height from 2 to 18 cm (1- to 4-leaf stage) for postemergence treatments.
(§3) Treated plants and controls were maintained in a greenhouse for 13 to 15 days, after which time all treated plants were visually evaluated and compared to controls. Plant response ratings, summarized in Table B, are based on a scale of 0 to 100 where 0 is no effect and 100 is complete control. A dash (-) response means no test result.

[1] = tested on: velvetleaf (Abutilon theophrasti); assay: Test B pre-/postemergence plant response
Description: as §1, §2, §3

[2] = tested on: goosegrass (Eleusine indica); assay: Test B pre-/postemergence plant response
Description: as §1, §2, §3

[3] = tested on: ragweed (common ragweed, Ambrosia elatior); assay: Test B pre-/postemergence plant response
Description: as §1, §2, §3

[4] = tested on: pigweed (Amaranthus retroflexus); assay: Test B pre-/postemergence plant response
Description: as §1, §2, §3

[5] = tested on: cocklebur (Xanthium strumarium); assay: Test B pre-/postemergence plant response
Description: as §1, §2, §3

[6] = tested on: wheat (Triticum aestivum); assay: Test B pre-/postemergence plant response
Description: as §1, §2, §3

[7] = tested on: johnsongrass (Sorghum halepense); assay: Test B pre-/postemergence plant response
Description: as §1, §2, §3

kochia (Kochia scoparia) = assay: Test B pre-/postemergence plant response
Description: as §1, §2, §3

soybean (Glycine max) = assay: Test B pre-/postemergence plant response
Description: as §1, §2, §3

[8] = tested on: windgrass (Apera spica-venti); assay: Test B postemergence plant response
In short: (§4)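 Visual ratings from 0 (no effect) to 100 (complete control), made against controls 13–15 days after treatment, kept in a greenhouse. Compounds were applied postemergence to potted plants at the 1- to 4-leaf stage (2–18 cm).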

[9] = tested on: canarygrass (Phalaris minor); assay: Test B postemergence plant response
In short: as §4

[10] = tested on: chickweed (Stellaria media); assay: Test B postemergence plant response
In short: as §4

`COc1ccc(-n2c(-c3ccccc3)ncc(C(=O)C3=C(O)CCCC3=O)c2=O)cc1` [Compound 4, 5-[(2-hydroxy-6-oxo-cyclohexen-1-yl)carbonyl]-3-(4-methoxyphenyl)-2-phenyl-4(3H)-pyrimidinone] showed a pest or weed control at 31 g/ha (wild oat (Avena fatua); Avena fatua, post-emergence, 31 g ai/ha, scale 0 to 100 (0 no effect, 100 complete control), read-out: Plant response rating, Oat, Wild) of 30%, a pest or weed control at 62 g/ha (wild oat (Avena fatua); Avena fatua, post-emergence, 62 g ai/ha, scale 0 (no effect) to 100 (complete control), 13 to 15 days, read-out: Plant response rating, Oat, Wild) of 50% and a pest or weed control at 125 g/ha (wild oat (Avena fatua); Avena fatua, post-emergence, 125 g ai/ha, visual rating after 13 to 15 days, scale 0 (no effect) to 100 (complete control)) of 50%. The “Oat, Wild plant response rating” value (wild oat (Avena fatua); 250 g ai/ha, scale 0 to 100) was 50, the pest or weed control at 31 g/ha ([1]; Abutilon theophrasti, post-emergence, 360 h, 31 g ai/ha, scale 0 to 100 (0 no effect, 100 complete control), read-out: Plant response rating, Velvetleaf) was 70% and the pest or weed control at 62 g/ha ([1]; Abutilon theophrasti, post-emergence, 360 h, 62 g ai/ha, scale 0 (no effect) to 100 (complete control), 13 to 15 days, read-out: Plant response rating, Velvetleaf) was 75%. For the same compound, the pest or weed control at 125 g/ha ([1]; Abutilon theophrasti, post-emergence, 360 h, 125 g ai/ha, visual rating after 13 to 15 days, scale 0 (no effect) to 100 (complete control)) was 90%, the “Velvetleaf plant response rating” value ([1]; 250 g ai/ha, scale 0 to 100) was 100 and the pest or weed control at 31 g/ha ([2]; Eleusine indica, post-emergence, 31 g ai/ha, scale 0 to 100 (0 no effect, 100 complete control), read-out: Plant response rating, Goosegrass) was 25%. The pest or weed control at 62 g/ha ([2]; Eleusine indica, post-emergence, 62 g ai/ha, scale 0 (no effect) to 100 (complete control), 13 to 15 days, read-out: Plant response rating, Goosegrass) was 75%, the pest or weed control at 125 g/ha ([2]; Eleusine indica, post-emergence, 125 g ai/ha, visual rating after 13 to 15 days, scale 0 (no effect) to 100 (complete control)) was 85% and the “Goosegrass plant response rating” value ([2]; 250 g ai/ha, scale 0 to 100) was 98. For the same compound, the pest or weed control at 31 g/ha ([3]; Ambrosia artemisiifolia, post-emergence, 360 h, 31 g ai/ha, scale 0 to 100 (0 no effect, 100 complete control), read-out: Plant response rating, Ragweed) was 100%, the pest or weed control at 62 g/ha ([3]; Ambrosia artemisiifolia, post-emergence, 360 h, 62 g ai/ha, scale 0 (no effect) to 100 (complete control), 13 to 15 days, read-out: Plant response rating, Ragweed) was 100% and the pest or weed control at 125 g/ha ([3]; Ambrosia artemisiifolia, post-emergence, 360 h, 125 g ai/ha, visual rating after 13 to 15 days, scale 0 (no effect) to 100 (complete control)) was 100%. For the same compound, the “Ragweed plant response rating” value ([3]; 250 g ai/ha, scale 0 to 100) was 100, the pest or weed control at 31 g/ha ([4]; Amaranthus retroflexus, post-emergence, 31 g ai/ha, scale 0 to 100 (0 no effect, 100 complete control), read-out: Plant response rating, Pigweed) was 100% and the pest or weed control at 62 g/ha ([4]; Amaranthus retroflexus, post-emergence, 62 g ai/ha, scale 0 (no effect) to 100 (complete control), 13 to 15 days, read-out: Plant response rating, Pigweed) was 100%. For the same compound, the pest or weed control at 125 g/ha ([4]; Amaranthus retroflexus, post-emergence, 125 g ai/ha, visual rating after 13 to 15 days, scale 0 (no effect) to 100 (complete control)) was 100%, the “Pigweed plant response rating” value ([4]; 250 g ai/ha, scale 0 to 100) was 100 and the “Cocklebur plant response rating” value ([5]; 250 g ai/ha, scale 0 to 100) was 100. The pest or weed control at 31 g/ha ([5]; Xanthium strumarium, post-emergence, 31 g ai/ha, scale 0 to 100 (0 no effect, 100 complete control), read-out: Plant response rating, Cocklebur) was 100%, the pest or weed control at 62 g/ha ([5]; Xanthium strumarium, post-emergence, 62 g ai/ha, scale 0 (no effect) to 100 (complete control), 13 to 15 days, read-out: Plant response rating, Cocklebur) was 100% and the pest or weed control at 125 g/ha ([5]; Xanthium strumarium, post-emergence, 125 g ai/ha, visual rating after 13 to 15 days, scale 0 (no effect) to 100 (complete control)) was 100%. The “Wheat plant response rating” value ([6]; 250 g ai/ha, scale 0 to 100) was 70, the plant injury at 31 g/ha ([6]; Triticum aestivum, post-emergence, 31 g ai/ha, scale 0 to 100 (0 no effect, 100 complete control), read-out: Plant response rating, Wheat) was 5% and the plant injury at 62 g/ha ([6]; Triticum aestivum, post-emergence, 62 g ai/ha, scale 0 (no effect) to 100 (complete control), 13 to 15 days, read-out: Plant response rating, Wheat) was 5%. The plant injury at 125 g/ha ([6]; Triticum aestivum, post-emergence, 125 g ai/ha, visual rating after 13 to 15 days, scale 0 (no effect) to 100 (complete control)) was 50%, the “Johnsongrass plant response rating” value ([7]; 250 g ai/ha, scale 0 to 100) was 98 and the pest or weed control at 31 g/ha ([7]; Sorghum halepense, post-emergence, 31 g ai/ha, scale 0 to 100 (0 no effect, 100 complete control), read-out: Plant response rating, Johnsongrass) was 45%. For the same compound, the pest or weed control at 62 g/ha ([7]; Sorghum halepense, post-emergence, 62 g ai/ha, scale 0 (no effect) to 100 (complete control), 13 to 15 days, read-out: Plant response rating, Johnsongrass) was 80%, the pest or weed control at 125 g/ha ([7]; Sorghum halepense, post-emergence, 125 g ai/ha, visual rating after 13 to 15 days, scale 0 (no effect) to 100 (complete control)) was 95% and the pest or weed control at 31 g/ha (kochia (Kochia scoparia); Bassia scoparia, post-emergence, 31 g ai/ha, scale 0 to 100 (0 no effect, 100 complete control), read-out: Plant response rating, Kochia) was 80%. The pest or weed control at 62 g/ha (kochia (Kochia scoparia); Bassia scoparia, post-emergence, 62 g ai/ha, scale 0 (no effect) to 100 (complete control), 13 to 15 days, read-out: Plant response rating, Kochia) was 100%, the pest or weed control at 125 g/ha (kochia (Kochia scoparia); Bassia scoparia, post-emergence, 125 g ai/ha, visual rating after 13 to 15 days, scale 0 (no effect) to 100 (complete control)) was 100% and the “Kochia plant response rating” value (kochia (Kochia scoparia); 250 g ai/ha, scale 0 to 100) was 100. For the same compound, the plant injury at 31 g/ha (soybean (Glycine max); Glycine max, post-emergence, 31 g ai/ha, scale 0 to 100 (0 no effect, 100 complete control), read-out: Plant response rating, Soybean) was 95%, the plant injury at 62 g/ha (soybean (Glycine max); Glycine max, post-emergence, 62 g ai/ha, scale 0 (no effect) to 100 (complete control), 13 to 15 days, read-out: Plant response rating, Soybean) was 100% and the plant injury at 125 g/ha (soybean (Glycine max); Glycine max, post-emergence, 125 g ai/ha, visual rating after 13 to 15 days, scale 0 (no effect) to 100 (complete control)) was 100%. For the same compound, the “Soybean plant response rating” value (soybean (Glycine max); 250 g ai/ha, scale 0 to 100) was 100, the pest or weed control at 31 g/ha ([8]; Apera spica-venti, post-emergence, 360 h, 31 g ai/ha, scale 0 to 100 (0 no effect, 100 complete control), read-out: Plant response rating, Windgrass) was 50% and the pest or weed control at 62 g/ha ([8]; Apera spica-venti, post-emergence, 360 h, 62 g ai/ha, scale 0 (no effect) to 100 (complete control), 13 to 15 days, read-out: Plant response rating, Windgrass) was 55%. The pest or weed control at 125 g/ha ([8]; Apera spica-venti, post-emergence, 360 h, 125 g ai/ha, visual rating after 13 to 15 days, scale 0 (no effect) to 100 (complete control)) was 60%, the “Windgrass plant response rating” value ([8]; 250 g ai/ha, scale 0 to 100) was 75 and the pest or weed control at 31 g/ha ([9]; Phalaris minor, post-emergence, 360 h, 31 g ai/ha, scale 0 to 100 (0 no effect, 100 complete control), read-out: Plant response rating, Canarygrass) was 10%. For the same compound, the pest or weed control at 62 g/ha ([9]; Phalaris minor, post-emergence, 360 h, 62 g ai/ha, scale 0 (no effect) to 100 (complete control), 13 to 15 days, read-out: Plant response rating, Canarygrass) was 20%, the pest or weed control at 125 g/ha ([9]; Phalaris minor, post-emergence, 360 h, 125 g ai/ha, visual rating after 13 to 15 days, scale 0 (no effect) to 100 (complete control)) was 75% and the “Canarygrass plant response rating” value ([9]; 250 g ai/ha, scale 0 to 100) was 80. For the same compound, the “Chickweed plant response rating” value ([10]; 250 g ai/ha, scale 0 to 100) was 100, the pest or weed control at 31 g/ha ([10]; Stellaria media, post-emergence, 360 h, 31 g ai/ha, scale 0 to 100 (0 no effect, 100 complete control), read-out: Plant response rating, Chickweed) was 100% and the pest or weed control at 62 g/ha ([10]; Stellaria media, post-emergence, 360 h, 62 g ai/ha, scale 0 (no effect) to 100 (complete control), 13 to 15 days, read-out: Plant response rating, Chickweed) was 100%. It also gave a pest or weed control at 125 g/ha ([10]; Stellaria media, post-emergence, 360 h, 125 g ai/ha, visual rating after 13 to 15 days, scale 0 (no effect) to 100 (complete control)) of 100%.

— patent US8952024B2, “Herbicidal pyrimidone derivatives” (E I du Pont de Nemours and Company, priority 2009, dated 2015)
